# Like-named read-outs stand apart in the source and are kept apart here.
# Legend:
# 5-HT2C receptor [1] = target: T1, 5-HT2C receptor (Homo sapiens, UniProt P28335); experiment: IP accumulation assay; type: cell-based; conditions: HEK293 cells expressing recombinant 5-HT2C receptors, [3H]inositol phosphates, 2 h at 37° C.
# T1 construct: expressed in transfected cells; host or cells: HEK293
# T1 sequence (P28335 33-458): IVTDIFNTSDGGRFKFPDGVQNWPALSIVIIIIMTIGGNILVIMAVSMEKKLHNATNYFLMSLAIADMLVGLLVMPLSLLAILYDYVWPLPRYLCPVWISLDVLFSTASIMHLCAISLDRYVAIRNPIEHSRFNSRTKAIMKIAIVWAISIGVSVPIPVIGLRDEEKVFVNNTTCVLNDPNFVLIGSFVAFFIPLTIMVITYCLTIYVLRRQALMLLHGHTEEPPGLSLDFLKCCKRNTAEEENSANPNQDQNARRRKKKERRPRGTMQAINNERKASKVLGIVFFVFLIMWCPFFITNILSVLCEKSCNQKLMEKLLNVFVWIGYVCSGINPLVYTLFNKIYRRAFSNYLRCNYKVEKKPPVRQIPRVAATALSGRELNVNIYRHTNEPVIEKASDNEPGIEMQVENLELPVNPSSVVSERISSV
# Experimental: HEK293 cells expressing recombinant 5-HT2C receptors were added to sterile poly-D-lysine-coated 96-well microtiter plates (35,000 cells/well) and labeled with 0.6 µCi/well of [^3H]inositol in myoinositol-free DMEM for 18 h. Unincorporated [^3H]inositol was removed by aspiration and replaced with fresh myoinositol-free DMEM supplemented with LiCl (10 mM final) and pargyline (10 μM final). Serially diluted test compounds were then added and incubation was conducted for 2 h at 37° C. Incubations were then terminated by lysing cells with the addition of ice-cold 0.1 M formic acid followed by freezing at −80° C. After thawing, total [^3H]inositol phosphates were resolved from [^3H]inositol using AG1-X8 ion exchange resin (Bio-Rad) and [^3H]inositol phosphates were measured by scintillation counting using a Perkin Elmer TopCount® scintillation counter. All EC50 determinations were performed using 10 different concentrations and triplicate determinations were made at each test concentration.
# 5-HT2A receptor [2] = target: T2, 5-HT2A receptor (Homo sapiens, UniProt P28223); experiment: IP accumulation assay; type: cell-based; conditions: [3H]inositol phosphates, read-out: IP Accumulation EC50 (nM) 2A
# T2 sequence (P28223 whole entry): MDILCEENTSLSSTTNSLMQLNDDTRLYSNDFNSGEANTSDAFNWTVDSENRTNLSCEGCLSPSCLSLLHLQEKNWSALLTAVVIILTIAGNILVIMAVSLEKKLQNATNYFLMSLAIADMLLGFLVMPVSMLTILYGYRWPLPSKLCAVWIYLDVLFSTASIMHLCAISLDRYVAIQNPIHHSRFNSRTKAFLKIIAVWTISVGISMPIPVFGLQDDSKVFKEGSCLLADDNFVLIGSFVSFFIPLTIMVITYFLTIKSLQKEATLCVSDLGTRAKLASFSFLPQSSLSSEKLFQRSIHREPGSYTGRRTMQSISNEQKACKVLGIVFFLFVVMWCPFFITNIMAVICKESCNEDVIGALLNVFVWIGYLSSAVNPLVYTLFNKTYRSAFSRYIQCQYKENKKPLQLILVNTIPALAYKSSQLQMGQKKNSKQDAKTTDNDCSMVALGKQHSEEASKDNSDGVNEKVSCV
# 5-HT2B receptor [3] = target: T3, 5-HT2B receptor (Homo sapiens, UniProt P41595); experiment: IP accumulation assay; type: cell-based; conditions: [3H]inositol phosphates, read-out: IP Accumulation EC50 (nM) 2B
# T3 sequence (P41595 whole entry): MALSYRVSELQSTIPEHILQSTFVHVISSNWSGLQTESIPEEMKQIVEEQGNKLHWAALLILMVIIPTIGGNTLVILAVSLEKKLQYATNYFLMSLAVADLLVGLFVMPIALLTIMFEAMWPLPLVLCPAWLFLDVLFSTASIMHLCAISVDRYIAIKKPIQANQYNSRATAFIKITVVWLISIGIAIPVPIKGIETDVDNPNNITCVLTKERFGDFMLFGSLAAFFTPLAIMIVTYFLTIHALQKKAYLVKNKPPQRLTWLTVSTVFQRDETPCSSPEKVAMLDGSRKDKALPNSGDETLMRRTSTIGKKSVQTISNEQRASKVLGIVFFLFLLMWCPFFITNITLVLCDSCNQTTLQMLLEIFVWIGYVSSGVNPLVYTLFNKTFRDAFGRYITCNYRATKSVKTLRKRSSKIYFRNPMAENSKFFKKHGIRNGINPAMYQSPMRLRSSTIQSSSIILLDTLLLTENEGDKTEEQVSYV
# 5-HT2C receptor [4] = target: T1, 5-HT2C receptor; experiment: Radioligand binding assay with [125I]DOI; conditions: competition with [125I]DOI, membranes of HEK293 cells expressing recombinant 5-HT2C receptors; read-out: DOI Binding Ki (nM) 2C
# Experimental: For the compounds of Table A, the following procedure was used. HEK293 cells stably expressing recombinant 5-HT2C receptors were harvested, suspended in ice-cold phosphate buffered saline, pH 7.4 (PBS), and then centrifuged at 48,000 g for 20 min at 4° C. The resulting cell pellet was then re-suspended in wash buffer containing 20 mM HEPES, pH 7.4 and 0.1 mM EDTA, homogenized on ice using a Brinkman Polytron, and centrifuged (48,000 g for 20 min at 4° C.). The pellet was then resuspended in 20 mM HEPES, pH 7.4, homogenized on ice, and centrifuged (48,000 g for 20 min at 4° C.). Crude membrane pellets were stored at −80° C. until used for radioligand binding assays.
# For the compounds of Table A, the following procedure was used. […] Experiments comprised addition of 95 μL of assay buffer (20 mM HEPES, pH 7.4, 10 mM MgCl2), 50 μL of membranes, 50 μL of radioligand stock, and 5 μL of test compound diluted in assay buffer to 96-well microtiter plates, which were then incubated for 1 h at room temperature. Assay incubations were terminated by rapid filtration through PerkinElmer F/C filtration plates under reduced pressure using a 96-well Packard filtration apparatus, followed by washing three times with ice cold assay buffer. Plates were then dried at 45° C. for a minimum of 2 h. Finally, 25 μL of BetaScint™ scintillation cocktail was added to each well and the plates were counted in a Packard TopCount® scintillation counter. In each competition study, test compounds were dosed at ten concentrations with triplicate determinations at each test concentration.
# 5-HT2B receptor [5] = target: T3, 5-HT2B receptor; experiment: Radioligand binding assay with [125I]DOI; conditions: competition with [125I]DOI, read-out: DOI Binding Ki (nM) 2B
# 5-HT2A receptor [6] = target: T2, 5-HT2A receptor; experiment: Radioligand binding assay with [125I]DOI; conditions: competition with [125I]DOI, read-out: DOI Binding Ki (nM) 2A
# [7] = reports that led to withdrawal by the FDA in 1998; cited from earlier work
# [8] = cited from earlier work
# [9] = cited from earlier work; remark: listed apart in the source
# [10] = patients without diabetes, cited from earlier work
# [11] = 10 mg BID, patients with type 2 diabetes, cited from earlier work
# [12] = pivotal phase 3 program, treated for up to two years
# [13] = patients with type 2 diabetes, BELVIQ BID
# [14] = patients without type 2 diabetes
structure (smiles),measurement,setting,value
"CCc1ccc2c3c1C1(CC1)C1(CC1)CC3CCNC2 (stereo not shown) [Compound 101, 8′-ethyl-2′,3′,4′,4a′,5′-pentahydro-1′H-dispiro[cyclopropane-1,6′-cyclopropane-7′,1″- naphtho[1,8-cd]azepine]]",EC50,5-HT2C receptor [1],2040 nM
same,EC50,5-HT2A receptor [2],> 100000 nM
same,EC50,5-HT2B receptor [3],> 100000 nM
"CC1(C)CC2CCNCc3cccc(c32)C12CC2 (stereo not shown) [Compound 102, 6′,6′-dimethyl-2′,3′,4′,4a′,5′,6-hexahydro-1′H-spiro[cyclopropane-1,7′-naphtho[1,8-cd]azepine]]",Ki,5-HT2C receptor [4],10.3 nM
same,Ki,5-HT2B receptor [5],255 nM
same,Ki,5-HT2A receptor [6],236 nM
"Brc1ccc2c3c1CCCC3CCNC2 (stereo not shown) [Compound 106, 8-bromo-1,2,3,4,4a,5,6,7-octahydronaphtho[1,8-cd]azepine]",Ki,5-HT2C receptor [4],105 nM
same,Ki,5-HT2B receptor [5],125 nM
same,Ki,5-HT2A receptor [6],244 nM
"CC1(C)CC2CCNCc3ccc(F)c(c32)C12CC2 (stereo not shown) [Compound 119, 8′-fluoro-6′,6′-dimethyl-2′,3′,4′,4a′,5′,6′-hexahydro-1′H-spiro[cyclopropane-1,7′-naphtho[1,8-cd]azepine]]",EC50,5-HT2C receptor [1],391 nM
same,EC50,5-HT2A receptor [2],> 100000 nM
same,EC50,5-HT2B receptor [3],> 100000 nM
"CC1(C)c2cccc3c2C(CCNC3)CC12CC2 (stereo not shown) [Compound 121, 7,7′-dimethyl-2′,3′,4′,4a′,5′,7′-hexahydro-1′H-spiro[cyclopropane-1,6′-naphtho[1,8-cd]azepine]]",EC50,5-HT2C receptor [1],222 nM
same,Ki,5-HT2C receptor [4],27.6 nM
same,EC50,5-HT2A receptor [2],> 100000 nM
same,Ki,5-HT2B receptor [5],634 nM
same,Ki,5-HT2A receptor [6],423 nM
same,EC50,5-HT2B receptor [3],> 100000 nM
"c1cc2c3c(c1)C1(CCC3CCNC2)CC1 (stereo not shown) [Compound 128, 2′,3′,4′,4a′,5′,6′-hexahydro-1′H-spiro[cyclopropane-1,7′-naphtho[1,8-cd]azepine]]",EC50,5-HT2C receptor [1],108 nM
same,EC50,5-HT2A receptor [2],> 100000 nM
same,EC50,5-HT2B receptor [3],284 nM
"c1cc2c3c(c1)C1(CC1)C1(CC1)CC3CCNC2 (stereo not shown) [Compound 130, 2′,3′,4′,4a′,5′-pentahydro-1′H-dispiro[cyclopropane-1,6′-cyclopropane-7′,1″- naphtho[1,8-cd]azepine]]",EC50,5-HT2C receptor [1],5.21 nM
same,Ki,5-HT2C receptor [4],1.96 nM
same,EC50,5-HT2A receptor [2],465 nM
same,Ki,5-HT2B receptor [5],75.7 nM
same,Ki,5-HT2A receptor [6],34.4 nM
same,EC50,5-HT2B receptor [3],967 nM
"c1cc2c3c(c1)C1(CCC1)CCC3CCNC2 (stereo not shown) [Compound 131, 2′,3′,4′,4a′,5′,6′-hexahydro-1′H-spiro[cyclobutane-1,7′-naphtho[1,8-cd]azepine]]",EC50,5-HT2C receptor [1],83.5 nM
same,EC50,5-HT2A receptor [2],> 100000 nM
same,EC50,5-HT2B receptor [3],> 100000 nM
"CC1(C)CCC2CCNCc3cccc1c32 (stereo not shown) [Compound 135, 7,7-dimethyl-1,2,3,4,4a,5,6,7-octahydronaphtho[1,8-cd]azepine]",Ki,5-HT2C receptor [4],69.6 nM
same,Ki,5-HT2B receptor [5],395 nM
same,Ki,5-HT2A receptor [6],458 nM
CCN[C@@H](C)Cc1cccc(C(F)(F)F)c1 [d-fenfluramine],share of patients with reported cardiac valve defects,[7],up to one third
"C[C@H]1CNCCc2ccc(Cl)cc21 [lorcaserin, (R)-8-chloro-1-methyl-2,3,4,5-tetrahydro-1H-3-benzazepine]",share of excess body weight lost,"[8]; first phase 3 trial, based on a normal BMI of 25",about one-third
same,risk of cardiac valvulopathy,[8]; phase 3 program,did not increase the risk of cardiac valvulopathy
same,proportion of patients that achieved at least 5% weight loss,[8]; [12],About two-thirds
same,proportion of patients that achieved at least 10% weight loss,[8]; [12],over one-third
same,average weight lost as share of their weight,[8]; pivotal phase 3 program,about 8%
same,"average weight loss, top quartile of patients",[8]; second phase 3 trial,35 pounds
same,"average weight loss, top quartile of patients, of body weight",[8]; second phase 3 trial,16%
same,patients who decreased the total daily dose of medications used for treatment of dyslipidemia,[9]; [13],5.5%
same,patients who increased use of medications used for treatment of dyslipidemia,[9]; [13],3.1%
same,decrease of mean daily doses of sulfonylureas and thiazolidinediones,"[9]; patients with type 2 diabetes, BELVIQ groups",16-24%
same,patients who decreased total daily dose of antihypertensive medications,[9]; patients with type 2 diabetes,8.2%
same,patients who increased total daily dose of antihypertensive medications,[9]; patients with type 2 diabetes,6.6%
same,patients who decreased the total daily dose of medications used for treatment of dyslipidemia,[9]; [14],1.3%
same,patients who decreased total daily dose of antihypertensive medications,[9]; [14],2.2%
same,patients who increased total daily dose of antihypertensive medications,[9]; [14],2.2%
same,patients who increased use of medications used for treatment of dyslipidemia,[9]; [14],2.6%
same,change of insulin resistance (HOMA-IR),"[10]; one study, placebo −0.2",−0.4
same,change of fasting insulin,"[10]; one study, placebo −1.3 μIU/mL",−3.3 μIU/mL
same,change of mean fasting glucose,[10]; placebo +0.6 mg/dL,-0.2 mg/dL
same,reduction in HbA1c,[11]; placebo 0.4%,0.9%
same,reduction in fasting glucose,[11]; placebo 11.9%,27.4%

# Reference: US11395824B2, “5-HT2C receptor agonists and compositions and methods of use” (Arena Pharmaceuticals, Inc., priority 2015, dated 2022)
